SMILES strings stand for the structures.

In one data set the target is T1, neuraminidase (UniProt P03468).
T1 construct: IC50; other: compound incubated in enzyme assay buffer before the test
It is filed as biochemical. Particulars: enzyme inhibition in vitro.

The conditions of data set [1]: mouse, in vivo, cited from earlier work.
For data set [2] the following is noted: in vivo; cited from earlier work.
The next data set deals with influenza. Particulars: mice, Ryan et al. 1994, cited from earlier work.

T1 sequence (P03468 whole entry): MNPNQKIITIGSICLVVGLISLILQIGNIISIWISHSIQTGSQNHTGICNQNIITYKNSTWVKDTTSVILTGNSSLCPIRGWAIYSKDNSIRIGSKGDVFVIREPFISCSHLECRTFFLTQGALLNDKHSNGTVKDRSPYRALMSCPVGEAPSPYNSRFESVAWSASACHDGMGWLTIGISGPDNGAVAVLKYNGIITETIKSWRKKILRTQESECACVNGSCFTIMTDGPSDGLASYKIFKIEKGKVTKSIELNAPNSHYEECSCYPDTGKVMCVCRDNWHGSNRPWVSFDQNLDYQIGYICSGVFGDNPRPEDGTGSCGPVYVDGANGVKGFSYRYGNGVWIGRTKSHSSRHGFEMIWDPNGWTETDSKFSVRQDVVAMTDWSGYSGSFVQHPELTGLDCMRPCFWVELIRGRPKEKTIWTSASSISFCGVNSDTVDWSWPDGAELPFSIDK

A word on the IC50: it is the point on the concentration scale where inhibition reaches its midpoint. Higher therefore signals weaker potency. At neuraminidase, `COCO[C@@H]1C=C(C(=O)O)C[C@H](N)[C@H]1NC(C)=O` [compound 114] returned an IC50 of 1 to 10 µM.

On neuraminidase, `CC(=O)N[C@H]1[C@H](O)C=C(C(=O)O)C[C@@H]1N=C(N)N` [compound 94] showed an IC50 of under 1 µM.

On to `CC(=O)N[C@H]1[C@H]([C@H](O)[C@H](O)CO)OC(C(=O)O)=C[C@@H]1N=C(N)N` [GG167, 4-guanidino-2,4-dideoxy-2,3-dehydro-N-acetylneuraminic acid], for which the Bioavailability entry in data set [1] (ip) was “good”. In addition, in data set [1] (po), the Oral bioavailability result was “poor”. Moreover, the “Clearance from the plasma” value in data set [1] is “rapid”. The Toxicity result in data set [2] is “similarly nontoxic”. Also, the In vivo activity entry in the data set with influenza (intraperitoneal administration) is listed as “relatively poor”. Also, in the data set with influenza (oral dosing), the Efficacy result is “poor”.

The record behind these values is patent US20040053999A1, “Novel compounds and methods for synthesis and therapy” (priority 1997, published 2004).
